Measurements published in PubChem BioAssay (NCI).
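48-hour exposure; five concentrations; linearly interpolated endpoints. At the GI50, growth is halved. TGI: concentration producing complete growth inhibition.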

Experiments:
Experiment in all cases: NCI tumour cell line growth inhibition, 48 h
HT29 colon = system: HT29 colon
HOP-62 NSCLC = system: HOP-62 NSCLC
U251 CNS = system: U251 CNS
SNB-75 CNS = system: SNB-75 CNS
SK-MEL-28 melanoma = system: SK-MEL-28 melanoma
SF-539 CNS = system: SF-539 CNS
RPMI-8226 leukemia = system: RPMI-8226 leukemia
M14 melanoma = system: M14 melanoma
MDA-MB-435 = system: MDA-MB-435
OVCAR-5 ovarian = system: OVCAR-5 ovarian
RXF 393 renal = system: RXF 393 renal
HOP-92 NSCLC = system: HOP-92 NSCLC
UO-31 renal = system: UO-31 renal
SW-620 colon = system: SW-620 colon
OVCAR-4 ovarian = system: OVCAR-4 ovarian
MDA-MB-231 breast = system: MDA-MB-231 breast
HCC-2998 colon = system: HCC-2998 colon
HCT-116 colon = system: HCT-116 colon
TK-10 renal = system: TK-10 renal
OVCAR-3 ovarian = system: OVCAR-3 ovarian
ACHN renal = system: ACHN renal
NCI-H460 lung = system: NCI-H460 lung
SN12C renal = system: SN12C renal
SR leukemia = system: SR leukemia
COLO 205 colon = system: COLO 205 colon
IGROV1 ovarian = system: IGROV1 ovarian
T-47D breast = system: T-47D breast
CCRF-CEM leukemia = system: CCRF-CEM leukemia
786-0 renal = system: 786-0 renal
CAKI-1 renal = system: CAKI-1 renal
OVCAR-8 ovarian = system: OVCAR-8 ovarian
K-562 leukemia = system: K-562 leukemia
A549 NSCLC = system: A549 NSCLC
MOLT-4 leukemia = system: MOLT-4 leukemia
MALME-3M melanoma = system: MALME-3M melanoma
SK-OV-3 ovarian = system: SK-OV-3 ovarian
UACC-62 melanoma = system: UACC-62 melanoma
LOX IMVI melanoma = system: LOX IMVI melanoma
A498 renal = system: A498 renal
SF-268 CNS = system: SF-268 CNS
HL-60(TB) leukemia = system: HL-60(TB) leukemia
PC-3 prostate = system: PC-3 prostate
MCF7 breast = system: MCF7 breast
NCI/ADR-RES ovarian = system: NCI/ADR-RES ovarian
UACC-257 melanoma = system: UACC-257 melanoma
HS 578T breast = system: HS 578T breast
HCT-15 colon = system: HCT-15 colon
NCI-H226 lung = system: NCI-H226 lung
SNB-19 CNS = system: SNB-19 CNS
KM12 colon = system: KM12 colon
SK-MEL-2 melanoma = system: SK-MEL-2 melanoma
BT-549 breast = system: BT-549 breast
DU-145 prostate = system: DU-145 prostate
NCI-H522 lung = system: NCI-H522 lung
NCI-H23 lung = system: NCI-H23 lung
SK-MEL-5 melanoma = system: SK-MEL-5 melanoma

## N#CCCN1C/C(=C/c2ccccc2)C(=O)/C(=C/c2ccccc2)C1
HT29 colon
  GI50: 1.81 µM
  TGI: 3.91 µM
HOP-62 NSCLC
  GI50: 2.61 µM
  TGI: 6.03 µM
U251 CNS
  GI50: 1.48 µM
  TGI: 3.12 µM
SNB-75 CNS
  GI50: 7.43 µM
  TGI: 21.3 µM
SK-MEL-28 melanoma
  GI50: 1.79 µM
  TGI: 3.54 µM
SF-539 CNS
  GI50: 2.2 µM
  TGI: 4.98 µM
RPMI-8226 leukemia
  GI50: 0.295 µM
  TGI: 1.16 µM
M14 melanoma
  GI50: 2.12 µM
  TGI: 4.63 µM
MDA-MB-435
  GI50: 2.13 µM
  TGI: 5.89 µM
OVCAR-5 ovarian
  GI50: 2.55 µM
  TGI: 6.6 µM
RXF 393 renal
  GI50: 1.66 µM
  TGI: 3.38 µM
HOP-92 NSCLC
  GI50: 12.3 µM
  TGI: 29.4 µM
UO-31 renal
  GI50: 2.01 µM
  TGI: 6.08 µM
SW-620 colon
  GI50: 0.647 µM
  TGI: 2.47 µM
OVCAR-4 ovarian
  GI50: 3.1 µM
  TGI: 13.1 µM
MDA-MB-231 breast
  GI50: 2.75 µM
  TGI: 7.06 µM
HCC-2998 colon
  GI50: 1.74 µM
  TGI: 3.2 µM
HCT-116 colon
  GI50: 0.397 µM
  TGI: 1.88 µM
TK-10 renal
  GI50: 2.97 µM
  TGI: 7.76 µM
OVCAR-3 ovarian
  GI50: 2.63 µM
  TGI: 6.04 µM
ACHN renal
  GI50: 1.83 µM
  TGI: 3.4 µM
NCI-H460 lung
  GI50: 1.92 µM
  TGI: 3.91 µM
SN12C renal
  GI50: 2.15 µM
  TGI: 4.79 µM
SR leukemia
  GI50: 0.289 µM
  TGI: > 100 µM
COLO 205 colon
  GI50: 2.59 µM
  TGI: 6.42 µM
IGROV1 ovarian
  GI50: 3.66 µM
  TGI: 12.7 µM
T-47D breast
  GI50: 7.43 µM
  TGI: 21.4 µM
CCRF-CEM leukemia
  GI50: 0.498 µM
  TGI: > 100 µM
786-0 renal
  GI50: 1.92 µM
  TGI: 4.07 µM
CAKI-1 renal
  GI50: 3.16 µM
  TGI: 11.1 µM
OVCAR-8 ovarian
  GI50: 2.23 µM
  TGI: 6.03 µM
K-562 leukemia
  GI50: 0.744 µM
  TGI: > 100 µM
A549 NSCLC
  GI50: 3.8 µM
  TGI: 16.2 µM
MOLT-4 leukemia
  GI50: 2.95 µM
  TGI: 17.9 µM
MALME-3M melanoma
  GI50: 2.91 µM
  TGI: 6.69 µM
SK-OV-3 ovarian
  GI50: 4.09 µM
  TGI: 14.2 µM
UACC-62 melanoma
  GI50: 1.73 µM
  TGI: 3.44 µM
LOX IMVI melanoma
  GI50: 1.09 µM
  TGI: 2.47 µM
A498 renal
  GI50: 13.4 µM
  TGI: 26.8 µM
SF-268 CNS
  GI50: 2.94 µM
  TGI: 8.88 µM
HL-60(TB) leukemia
  GI50: 2.97 µM
  TGI: 21.2 µM
PC-3 prostate
  GI50: 2.6 µM
  TGI: 7.9 µM
MCF7 breast
  GI50: 0.395 µM
  TGI: 2.35 µM
NCI/ADR-RES ovarian
  GI50: 3.44 µM
  TGI: 31.7 µM
UACC-257 melanoma
  GI50: 1.91 µM
  TGI: 4.64 µM
HS 578T breast
  GI50: 2.96 µM
  TGI: 13.3 µM
HCT-15 colon
  GI50: 1.45 µM
  TGI: 3.54 µM
NCI-H226 lung
  GI50: 18.1 µM
  TGI: 50.3 µM
SNB-19 CNS
  GI50: 3.19 µM
  TGI: 13.6 µM
KM12 colon
  GI50: 1.59 µM
  TGI: 3.12 µM
SK-MEL-2 melanoma
  GI50: 2.62 µM
  TGI: 5.87 µM
BT-549 breast
  GI50: 2.14 µM
  TGI: 4.23 µM
DU-145 prostate
  GI50: 5.86 µM
  TGI: 18.1 µM
NCI-H522 lung
  GI50: 1.9 µM
  TGI: 3.56 µM
NCI-H23 lung
  GI50: 3.46 µM
  TGI: 12.6 µM
SK-MEL-5 melanoma
  GI50: 1.65 µM
  TGI: 3.07 µM
